Entries after “also recorded” stand apart in the source; their conditions may differ. Where no end group is shown, it is not given here.

In assay [1] the test system is anti-Sm and anti-nRNP precipitin sera (IgG). Put plainly: Solid phase antipeptide assay of Sm B/B' and related peptides with Sm, nRNP precipitin positive sera. The format is binding, human. The note with it: for antigenicity / reactivity in words: sera 1/100, Sm and nRNP precipitin positive SLE patients. The method, then: Sera. Human sera form patients who satisfied the classification criteria of the American Rheumatism Association for SLE or normal age-matched, sex-matched controls were used in this study. Fifteen sera from lupus patients were tested. Ten of these sera tested contained antibodies that formed strong precipitin lines with both Sm and nRNP, three formed precipitin lines with only nRNP, one formed a precipitin line with Ro/SSA and La/SSB, and one formed a precipitin line with only Ro/SSA. All of these serologic findings were confirmed by appropriate molecular weight bands for the reported antigen being bound in immunoblot by the respective sera.
Solid-phase noncleavable peptide synthesis. The published sequence of Sm B/B′ was used to construct all the possible overlapping octapeptides. The amino acids used for peptide synthesis had Fmoc protected primary amino groups and t-butyl (or other appropriate group) protected side chains. Overlapping octapeptides were simultaneously synthesized at the rounded ends of radiation derivatized polyethylene pins that were arranged in the format of a 96 well microliter plate (Cambridge Research Biochemicals. Cambridge, UK and Coselco Mimotopes Pty Ltd. Victoria, Australia) The active esters of Fmoc, t-butyl amino acid solutions (30 mM) were solubilized in DMF that had […] added to a final concentration of 30 mM and dispensed into the wells of a microliter plate. Each amino acid was added as determined by the 240 amino acids of the Raji Sm B/B′ sequence. After 18 h of incubation, the pins were washed in DMF for 5 min. four times at 2 min each in methanol, and once again in DMF for 5 min. The Fmoc protecting groups were then removed from the newly added amino acid by a 20% piperidine/DMF bath for 30 min. These steps were repeated until all eight amino acids were added. After the final amino acid, the amino terminal groups of each peptide was acetylated by incubating the pins in a 5:2:1 (v/v/v) mixture of DMF:acetic anhydride: triethylamine for 90 min at room temperature. After this step the pins were again washed in DMF for 2 min, four times at 2 min each in methanol, and then air-dried for 10 min. Finally, side chain amino protecting groups were removed by […] (v/w/v) of trifluoracetic acid:phenol:ethanedithiol. Wash steps included 2 min in methylene chloride, two times at 5 min each in 5% […]/methylene chloride, and a final methylene chloride wash for 5 min. After drying for 10 min., pins were placed in distilled water for 2 min., transferred to a methanol bath for 18 h. and dried under vacuum for 18 h. This procedure was repeated to synthesize another set of the carboxyl-terminal 36 octapeptides to allow substantiation of the previous data. In addition other octapeptides, including the amino acid changes seen in the vanDam/Ohosone Proc. Natl. Acad. Sci. USA 86:4249 (1989) sequences, were also synthesized. Selected substitution and deletion sequences, along with similar sequences from other proteins, were also constructed. Control pins composed of amino acids in a random sequence were prepared that were not present in any of the Sm or nRNP antigen sequences. In addition, positive control pins were synthesized from a known reactive sequence of the La/SSB peptide.
Solid phase antipeptide assay. Wash steps and incubations were carried out in sealed plastic containers. Other assay steps were performed by lowering the pins into microliter plate wells. First, pins were blocked with 3% low-fat milk in PBS for 1 h at room temperature. Pins were then incubated in 1/100 dilutions of sera in 3% milk/PBS with 0.05% TWEEN® (surfactant) overnight at 4° C. in humidified sealed containers. The pin blocks were then washed four times with PBS with 0.05% TWEEN® (surfactant) for 10 min each with vigorous agitation. […]

Assay [2] deals with affinity purified anti-La/SSB antibodies. Kind of assay: Pin ELISA of La/SSB octapeptides with affinity purified anti-La/SSB antibodies. The note with it: for enrichment of binding relative to the serum: affinity enriched preparation, patient E11, peak or average reactivities; for binding by affinity enriched anti-La/SSB preparation: preparation from patient E11. The format is binding, human. The method, then: Solid Phase Anti-peptide Assay. All steps were carried out by immersing the pin blocks into microtiter plate wells. Pins were incubated in blocking buffer (1% bovine serum albumin (BSA) in phosphate buffered saline (PBS), pH 7.2) for 1 h at room temperature and then in 1:100 dilutions of sera in diluent (1% BSA and 0.05% Tween in PBS) overnight at […] in humidified containers. Pin blocks were washed four times with wash buffer (0.05% Tween in PBS) for 10 min with agitation and then immersed for 1 h at room temperature in affinity purified goat anti-human-chain specific antibody conjugated to alkaline phosphatase (Sigma Chemical Co., St. Louis, Mo.) diluted 1:1000 in diluent. After washing as above, pins were incubated in para-nitrophenyl phosphate solution at 37° C. for 2 h. Color development was read at 410 nm on a DYNATECH® MR5000 ELISA plate reader.
Samples. Sera from five normal, healthy donors and ten patients with primary SS and/or SLE were screened by pin ELISA for antibodies binding to the La/SSB octapeptides. Eight of these ten patients had both anti-Ro/SSA and anti-La/SSB precipitin forming autoantibodies, and seven of these eight had borne children with congenital heart block (CCHB). Two patients had antibodies to Ro/SSA alone. Anti-La/SSB antibodies were affinity purified from the sera of two patients on La/SSB cross-linked immunosorbents as described by Horsfall, et al., J. Immunol. Meth. 104:43 (1987).
Anti-La/SSB antibodies from two patients have been affinity purified on La/SSB cross-linked immunosorbents. […] The affinity enriched preperation binds 17 of the 18 previously identified epitopes, the exception being epitope 17 (octapeptide 379); however, this preperation does bind octapeptides adjacent to epitope 17, particularly octapeptides 380 and 382. Those putative epitopes in which the binding is most enriched include epitopes 2, 3, 6, 9, 10, 12, 13 and 15. These same epitopes appear enriched whether peak or average reactivities for each putative epitope are compared. Essentially the same results have been obtained from an affinity enriched preparation of the anti-La/SSB from a second patient.
(In an ELISA, binding on a coated surface is turned into a signal by an enzyme label.)

In assay [3] the test system is antibody of patient serum. Put plainly: Solid phase assay of nRNP (70 kD, A, C) octapeptides with patient sera. The format is binding, human. The note with it: nRNP A sequences marked (*). The text has this:
The sequence of the 70 kD nuclear ribonucleoprotein (nRNP) is reported by R. A. Spritz, et al., in Nucleic Acids Res. 24: 10373-10391 (1987), the teachings of which are incorporated herein. The data analysis is done the same as for the Ro/SSA and La/SSB antigens. Each sequence identified represents the binding of antibody to octapetides that exceed arbitrary criteria in the solid phase assay. The identified antigenic regions are more than two standard deviations above the mean of normal sera and are bound by more than half of the patients. For the binding to the 70 kD peptide, the threshold in the assay is A410 of 0.380. The numbers in parentheses are the sequence positions of the first amino acid in the first octapeptide that exceeds the threshold. Each identified sequence is composed of one or more octapeptides. The number of octapeptides in each sequence is the length of the sequence […]. The underlined part of the sequence is the octapeptide that is bound most by the patient serum. In some cases, another octapeptide is essentially equivalent but not underlined.

For assay [4], the system named is KSm 3 monoclonal autoantibody. Kind of assay: Binding of monoclonal antibody KSm 3 to Sm B/B' octapeptides. Further details: species or system MRL lpr/lpr mouse. The note with it: hybridoma supernatant. The text has this: Autoantibodies binding the Sm B and B′ peptides (B/B′) are commonly associated with systemic lupus erythernatosus in man and in MRL lpr/lpr mice. KSm 3 and KSm 5 were derived from an unmanipulated MRL lpr/lpr mouse using hybridoma monoclonal antibody technology. Supernatants containing KSm 3 and KSm 5 monoclonal antibodies were collected from cloned murine hybridoma cell lines in RPMI 1640 with 10% fetal bovine serum, glutamine, penicillin and streptomycin. These monoclonal autoantibodies are both of the IgG2a subclass. The linear antigenic regions of these two anti-Sm B/B′ murine monoclonal autoantibodies have been mapped using overlapping octapeptides. Unique epitopes are identified by each monoclonal. Monoclonal antibody KSm 5 recognizes the peptide, PPPGMRPP (amino acids 4-11 of SEQ ID NO:14), which is repeated three times in the Sm B polypeptide. […] Both of these regions of Sm B/B′ are major areas of antigericity for human anti-Sm autoantibodies. […] When the arginine in the sixth position PPPGMRPP (amino acids 4-11 of SEQ ID NO:14) is substituted KSm 5 binding is found in an unexpected subset of octapeptides. […] In contrast, binding of KSm 3 to PPPGIRPP (SEQ ID NO:122) is abolished when the sixth position arginine is substituted by any other amino acid. These two murine autoantibodies bind distinct linear epitopes of Sm B/B′ which are also bound by human anti-Sm B/B′ autoantibodies. […]

DCDEFRKI (homo sapien) [octapeptide 44]: in assay [1], the “antigenicity / reactivity in words” value was “Binding is lost”.

For the substance EGIILFKEKAK [epitope 13], in assay [2], the “enrichment of binding relative to the serum” value is given as “most enriched”.

For the substance ERDRKREKRKPKS, in assay [3], the “proportion of sera binding” value is listed as “bound by a subset of the sera tested”.

GEIKWIDFVRGAK [epitope 6]: the “enrichment of binding relative to the serum” value in assay [2] is listed as “most enriched”.

As to ICHQIEYYFGDFNLPRDKFLK [epitope 2], the “enrichment of binding relative to the serum” value in assay [2] is “most enriched”.

As for IFVVFDSIE [epitope 9], the “enrichment of binding relative to the serum” value in assay [2] is recorded as “most enriched”.

Consider KETDLLILFKDDYFA [epitope 10], for which the “enrichment of binding relative to the serum” value in assay [2] is reported as “most enriched”.

On to LVSRSLKMRQAF, for which, in assay [3], the “proportion of sera binding” value is reported as “bound by a subset of the sera tested”.

Consider PAPGMRPP (homo sapien), for which the “antigenicity / reactivity in words” value in assay [1] was “as antigenic as PPPGMRPP”. In assay [1] (substituted or homologous octapeptides, six patient sera), the “original reactivity (binding) of PPPGMRPP retained” value is “over 90%”.

Turning to PGIRGPPP (homo sapien), the “binding by KSm 3 in words” value in assay [4] is on record as “binds best”.

As for PKNAKQPE (homo sapien) [octapeptide 53], the “antigenicity / reactivity in words” value in assay [1] is “Binding is lost”.

For PPP, in assay [1], the “antigenicity / reactivity in words” value is “no solely poly-proline sequence tested”.

Regarding PPPGIRGP (listed as Homo sapiens), the “antigenicity / reactivity in words” value in assay [1] is listed as “bound by all the Sm, nRNP sera tested”. The “binding by KSm 3 in words” value in assay [4] is “binds best”.

As to “PPPGM (homo sapien; (3)..(10) Binding site)”, the “reactivity to the PPPGMRPP motif destroyed” value in assay [1] (deletion peptides, six patient sera) is reported as “Greater than 60%”.

With PPPGMIPP (homo sapien), the “antigenicity / reactivity in words” value in assay [1] was “not antigenic; also recorded: does not bind”; in assay [1] (listed as nRNP A), “relatively no reactivity”.

For PPPGMR (not fully specified), in assay [1], the “antigenicity / reactivity in words” value is given as “does not appear to significantly alter binding”.

With “PPPGMRP (PPPGMXP; homo sapien; (3)..(10) Binding site)”, the “antigenicity / reactivity in words” value in assay [1] is “does not appear to significantly alter binding”.

As for PPPP (homo sapien), in assay [1], the “antigenicity / reactivity in words” value is listed as “no solely poly-proline sequence tested”.

Turning to PPPPP (homo sapien), the “antigenicity / reactivity in words” value in assay [1] is on record as “no solely poly-proline sequence tested”.

With REDLHILF [epitope 15], the “enrichment of binding relative to the serum” value in assay [2] is “most enriched”.

With TDFNVIVEA [epitope 12], the “enrichment of binding relative to the serum” value in assay [2] is given as “most enriched”.

Turning to WVPLEIMIKFNR [epitope 3], the “enrichment of binding relative to the serum” value in assay [2] was “most enriched”.

Take “octapeptide 380: La/SSB octapeptide adjacent to epitope 17, starting at amino acid 380 (GPVKRARE; UniProt P05455 380-387, looked up, fragment)”: the “binding by affinity enriched anti-La/SSB preparation” value in assay [2] is reported as “does bind”.

As to “octapeptide 382: La/SSB octapeptide adjacent to epitope 17, starting at amino acid 382 (VKRAREET; UniProt P05455 382-389, looked up, fragment)”, the “binding by affinity enriched anti-La/SSB preparation” value in assay [2] is “does bind”.
